Test results from patent US20090045121A1, “Dialysis Solution Preparation Water, Dialysis Solution Using Such Water, Method of Producing Dialysis Solution, and Dialysis Equipment” (priority 2006, published 2009).

Test: Oxidation reducing capability for glyoxal by hydrogen peroxide-luminol chemiluminescence
Conditions: added to 1.0 mM, 10.0 mM and 100.0 mM glyoxal; compared to Comparative Example 1; n=3
Method: At the elapse of 30 seconds, 1000 μl of hydrogen peroxide was further mixed therein. Then, the chemiluminescence (CL) count (number of photons) was identified continuously for 150 seconds. Measurement was initiated when the CL counts came to 200 s per second (total time: 180 seconds). For the confirmation and measurement of the CL counts, a CL analyzer (product of TOHOKU ELECTRONIC INDUSTRIAL CO., LTD.) was employed. Using the dialysis solution preparation water of Example 1 and Comparative Example 1 obtained in Experiment 1, an evaluation experiment on the oxidation reducing capability for glyoxal was conducted. An evaluation experiment (n=3) employing hydrogen peroxide-luminol chemiluminescence similar to that of Experiment 1 was carried out, provided that the test liquid used was prepared by adding 45 μl of each dialysis solution preparation water into 45 μl of glyoxal with the concentration of 1.0 mM, 10.0 mM and 100.0 mM such that the total amount of the test liquid was 90 μl. For a reference example, a similar experiment (n=3) was carried out employing ascorbic acid (well known as a free radical scavenge substance). The test liquid was prepared such that the ascorbic acid was added to attain 1.0 μg/ml for […].

For `O=C1O[C@H]([C@@H](O)CO)C(O)=C1O` [ascorbic acid], the CL total count was “reduced significantly”.
